Target: T1, rVDAC1-GFP2 / rVDAC1-Rluc in T-REx-293 cells (Rattus norvegicus, UniProt Q9Z2L0)
T1 construct: The rVDAC1 gene was cloned into BamHI and HindIII sites of the BRET2 plasmids (N2 variants); expressed in transfected cells; host or cells: T-REx-293 cells stably expressing hVDAC1-shRNA (T-REx-pS10)
Test: BRET2 assay of VDAC1 oligomerization induced by apoptosis inducers (Method A)
Type: cell-based
Details: test compound 10 μM, 1 h pre-incubation; for BRET2, % of inhibition, As2O3: As2O3 60 μM (3 h); for BRET2, % of inhibition, STS: STS 1 μM (3 h); for BRET2, % of inhibition, Selenite: selenite 30 μM (3 h)
Text: BRET2 screening may be carried out as described in the art ([…] et al., (2010) Oligomerization of the mitochondrial protein voltage-dependent anion channel is coupled to the induction of apoptosis. Mol Cell Biol 30, 5698-5709). Plasmids encoding the fusion proteins rat(r)VDAC1-GFP2 and rVDAC1-luc were constructed using the BRET2 plasmids (Perkin Elmer, Waltham, Mass.). The rVDAC1 gene was cloned into BamHI and HindIII sites of the BRET2 plasmids (N2 variants) and amplified using the forward primer [NT] and the reverse primer [NT]. […] The cells were transfected using calcium phosphate method. Transfections were carried out with 0.2 μg of a plasmid coding for rVDAC1-Rluc and with 0.8 μg of a plasmid coding for rVDAC1-GFP2. As a negative control, cells were transfected with plasmids encoding for rVDAC1-Rluc (0.2 μg DNA) and GFP2 (0.8 μg). In another control (control cells), cells were also transfected with a plasmid encoding for rVDAC1-luc (0.2 μg) and plasmid pcDNA4/TO (0.8 μg). The BRET2 signal represents the ratio of the GFP2 fluorescence, measured at its emission wavelength (510 nm), over the light intensity (luminescence) emitted at 395 nm. All measurements were performed using the Infinite 200 ELISA reader (Tecan). BRET2 signals were defined as GFP2/Rluc intensity ratio and calculated as follows: DNA encoding fusion proteins rVDAC1-Rluc (in which RLuc was connected to rVDAC1 at the C terminal position through a linker (GGGS)) and rVDAC1-GFP2 (in which the GFP2 was fused to the rVDAC1 C terminus) was cloned into BRET2 vectors. rVDAC1-GFP2 and rVDAC1-Rluc were expressed in T-REx-293 cells stably expressing shRNA-hVDAC1 and a low level of endogenous hVDAC1 (referred to as T-REx-pS10 cells) hVDAC1-shRNA, being specific to human VDAC1, allowed the expression of rVDAC1 and decreased the participation of endogenous hVDAC1 in oligomerization, thereby enhancing the BRET2 signal. rVDAC1-GFP2 and rVDAC1-Rluc expression levels were correlated with the amount of plasmids used. […] Following incubation, cells were harvested using trypsin, washed twice with PBS by centrifugation at 1000×g, 5 min, resuspended in 200 μl of PBS and divided between two wells of a 96-well clear-bottom plate (Grenier). […] The screening was conducted using BRET2 assay as described above. […] After treatment, the medium was removed and assayed for BRET2 signals as described above. Liquid handling was done with the Tecan (Männedorf, Switzerland) Freedom 150 Robotic & MCA Liquid Handling System, while luciferase luminescence and fluorescence readings were obtained a robot-integrated Tecan Infinite M1000 reader. Method A was used for screening of VDAC1 oligomerization inhibitors. […] Table 2 provides a summary of BRET2-based screen results of the anti-VDAC1 oligomerization activity of compounds from the NCI library. Results are presented as percent inhibition of the BRET2 signal induced by the indicated pro-apoptotic agent.

T1 sequence (Q9Z2L0 with tags, fused parts or gaps limits assumed): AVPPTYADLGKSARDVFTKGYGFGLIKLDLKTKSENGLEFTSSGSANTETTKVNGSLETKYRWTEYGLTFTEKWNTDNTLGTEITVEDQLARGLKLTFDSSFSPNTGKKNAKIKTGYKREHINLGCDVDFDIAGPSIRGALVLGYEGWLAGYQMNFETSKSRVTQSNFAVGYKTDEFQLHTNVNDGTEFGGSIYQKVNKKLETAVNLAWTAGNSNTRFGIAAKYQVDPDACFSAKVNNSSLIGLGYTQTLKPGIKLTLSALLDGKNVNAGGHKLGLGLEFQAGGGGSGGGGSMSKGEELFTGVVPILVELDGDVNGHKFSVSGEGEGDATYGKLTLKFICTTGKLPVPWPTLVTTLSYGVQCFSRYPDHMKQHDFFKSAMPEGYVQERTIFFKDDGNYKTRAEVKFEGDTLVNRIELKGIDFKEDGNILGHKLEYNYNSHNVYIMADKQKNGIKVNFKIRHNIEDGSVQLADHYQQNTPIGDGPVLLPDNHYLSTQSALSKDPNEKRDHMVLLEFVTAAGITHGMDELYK

Row | Compound | BRET2, % of inhibition, As2O3 | BRET2, % of inhibition, STS | BRET2, % of inhibition, Selenite
1 | CCCOc1nc2c(c(=O)n(C)c(=O)n2C)n1C [NSC 8816] | 49.6% | 0% | 20.1%
2 | COc1ccc(/C=C2/CCOC2=O)cc1 [NSC 10428] | 96.4% | 38.2% | 75.7%
3 | CCOC(=O)c1[nH]c(CO)c(C(=O)OCC)c1C [NSC 10768] | 52% | 0% | 9.6%
4 | Oc1ccc(Cc2ccc(Cl)cc2)c(O)c1 [NSC 11150] | 95.2% | 11.6% | 67%
5 | CCOC(=O)N1CCN(Cc2c(O)ccc3ccccc23)CC1 [NSC 12262] | 81.5% | 0% | 67.4%
6 | O=C(/C=C/c1ccccc1Cl)c1ccc(O)cc1 [NSC 13151] | 67% | 0% | 0%
7 | Nc1ccc(C(=O)Nc2cccc(N)c2)cc1 [NSC 15362] | 98% | 39.7% | 41%
8 | Nc1ccc(NC(=O)Nc2ccc(N)cc2)cc1 [NSC 15364] | 85.4% | 40.9% | 75.9%
9 | O=C(O)c1ccc(O)c(O)c1 [NSC 16631] | 0% | 30.5% | 41.5%
10 | Nc1ncnc2c1cnn2C1CCCCC1 [NSC 19115] | 64.2% | 36.4% | 62%
11 | S=c1nc[nH]c2c1ncn2C1CCCC1 [NSC 19487] | 88.8% | 32.6% | 68.6%
12 | O=[N+]([O-])c1cccc(/C=C/c2ccccn2)c1 [NSC 19637] | 76.2% | 0% | 61.8%
13 | CC(C)NC(=O)c1ccc(C(C)C)cc1 [NSC 20045] | 88% | 0% | 77.4%
14 | Cc1ccc(-n2nnnc2-c2cccnc2)cc1 [NSC 23247] | 97.3% | 0% | 52.1%
15 | CCN1CCc2ccccc2C1 [NSC 28837] | 85.2% | 0.3% | 48.3%
16 | CCOc1ccc(Nc2c3ccccc3nc3ccccc23)cc1 [NSC 30205] | 62.7% | 0% | 0%
17 | CC(C)COC(=O)NC1c2ccccc2Oc2ccccc21 [NSC 31069] | 74.9% | 0% | 0%
18 | COc1c(NC(C)=O)c2ccccc2c2ccccc12 [NSC 31698] | 51.3% | 0% | 2.1%
19 | CCOC(=O)Nc1ccc(C(=O)/C=C/c2ccccc2)cc1 [NSC 31703] | 56.7% | 16.6% | 33.3%
20 | CC1=CC(=O)C(C(C)=Nc2ccccc2Cl)C(=O)O1 (stereo not drawn) [NSC 32892] | 55.4% | 0% | 16.4%
21 | O=c1c(-c2ccc(O)cc2)coc2cc(O)cc(O)c12 [NSC 36586] | 49% | 0% | 0%

Row | Compound | BRET2, % of inhibition, As2O3 | BRET2, % of inhibition, STS | BRET2, % of inhibition, Selenite
22 | CN1CCN(C(=O)Nc2ccc([N+](=O)[O-])cc2)CC1 [NSC 36815] | 67.7% | 34.5% | 50%
23 | NC(=O)c1ccc(Oc2ccc(C(N)=O)cc2)cc1 [NSC 39047] | 70.2% | 39.1% | 54%
24 | O=C(O)c1cccc2c1C(=O)c1cccc3snc-2c13 [NSC 39938] | 48.7% | 0% | 18.8%
25 | O=C(O)c1cc2ccccc2cc1Nc1ccccc1 [NSC 40275] | 64.8% | 16.8% | 35.2%
26 | O=C(O)c1ccccc1C(=O)Nc1ccccc1[N+](=O)[O-] [NSC 41066] | 48.8% | 0% | 0%
27 | CN1[C@@H]2CC[C@H]1CC(OC(c1ccccc1)c1ccccc1)C2.CS(=O)(=O)O (stereo partly drawn) [NSC 42199] | 97% | 31% | 78.7%
28 | O=P(O)(O)c1cc(-c2ccccc2)oc1-c1ccccc1 [NSC 43344] | 80.7% | 23.8% | 50.1%
29 | CC(C)OC(=O)Nc1ccc(-c2ccc(NC(=O)OC(C)C)cc2Cl)c(Cl)c1 [NSC 43678] | 95.1% | 34.6% | 78.3%
30 | NCc1c(O)ccc2ccccc12 [NSC 48422] | 0% | 36.8% | 38.6%
31 | O=C(Nc1ccc(C2=NCCN2)cc1)c1ccc(Cl)c(C(=O)Nc2ccc(C3=NCCN3)cc2)c1 [NSC 67436] | 78.1% | 14.8% | 65.7%
32 | Nc1nc(N)c(C=Nc2ccc(Br)cc2)c(Nc2ccc(Br)cc2)n1 [NSC 103520] | 82.5% | 22.7% | 74%
33 | CC#CC#Cc1cccc(=O)o1 [NSC 109292] | 75.4% | 0% | 0%
34 | O=C1CN2CCC1C/C2=C\c1ccnc2c(Cl)cccc12 (stereo not drawn) [NSC 132868] | 55.5% | 0% | 41.4%
35 | Cc1ccc([N+](=O)[O-])cc1NC(=O)Nc1ccc(S(N)(=O)=O)cc1 [NSC 146554] | 100% | 0% | 71.8%
36 | O=C(Nc1ccc(Nc2ccncc2)cc1)c1ccc(Nc2ccnc3ccc([N+](=O)[O-])cc23)cc1 [NSC 146771] | 70.7% | 41.2% | 68.1%
37 | O=C(O)c1cc2ccccc2c2cc(Br)ccc12 [NSC 151252] | 100% | 0% | 29.8%
38 | Clc1ccc(/C=C/c2nc(Cl)c(-c3ccc(Cl)cc3)c(Cl)n2)cc1 [NSC 154389] | 90.6% | 45.9% | 90.6%
39 | Nc1ccc(C(=O)Oc2ccc([N+](=O)[O-])cc2)cc1 [NSC 163802] | 65.8% | 0% | 1.2%
40 | CCCCC(=O)N1CCCC(C)C1 (stereo not drawn) [NSC 191029] | 86.5% | 0% | 36.4%
41 | O=C(Nc1cccc([N+](=O)[O-])c1)c1cccc(C(=O)Nc2cccc([N+](=O)[O-])c2)c1 [NSC 204232] | 90.3% | 0% | 32.5%
42 | O=C(/C=C/c1ccccc1)NC(=S)Nc1ncccn1 [NSC 205968] | 58.5% | 0% | 0%

— patent publication US10787423B2, “Piperazine and piperidine derivatives, their synthesis and use thereof in inhibiting VDAC oligomerization, apoptosis and mitochondria dysfunction” (THE NATIONAL INSTITUTE FOR BIOTECHNOLOGY IN THE NEGEV LTD., priority 2015, dated 2020)
